Experiments:
Assay in all cases: Test C greenhouse herbicide test, pre- and postemergence
Format in all cases: in vivo
[1] = system: ryegrass, Italian (Italian ryegrass, Lolium multiflorum)
Outline: (§1)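 Greenhouse pots; pre-em on seeded loam:sand blend, post-em on 2–18 cm plants (1–4 leaf) in sphagnum peat/vermiculite medium. Formulation: non-phytotoxic solvent + surfactant. Read-out: visual % control (0–100) vs controls at 13–15 d.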

[2] = system: nutsedge, yellow (yellow nutsedge, Cyperus esculentus)
Outline: as §1

[3] = system: crabgrass, large (large crabgrass, Digitaria sanguinalis)
Outline: as §1

[4] = system: velvetleaf (Abutilon theophrasti)
Outline: as §1

[5] = system: waterhemp (common waterhemp, Amaranthus rudis)
Outline: as §1

[6] = system: ragweed (common ragweed, Ambrosia elatior)
Outline: as §1

[7] = system: soybean (Glycine max)
Outline: as §1

[8] = system: corn (Zea mays)
Outline: as §1

[9] = system: blackgrass (Alopecurus myosuroides)
Outline: as §1

[10] = system: morningglory (Ipomoea coccinea)
Outline: as §1

[11] = system: galium (catchweed bedstraw, Galium aparine)
Outline: as §1

[12] = system: lambsquarters (Chenopodium album)
Outline: as §1

[13] = system: foxtail, giant (giant foxtail, Setaria faberii)
Outline: as §1

[14] = system: barnyardgrass (Echinochloa crus-galli)
Outline: as §1

[15] = system: oilseed rape (Brassica napus)
Outline: as §1

[16] = Postemergence, 31 g ai/ha, 0 to 100 scale (0 no effect, 100 complete control)
[17] = Postemergence, 125 g ai/ha, scale 0 to 100, 0 is no effect, 100 is complete control
[18] = Postemergence, 250 g ai/ha, scale 0 to 100, 0 no effect, 100 complete control, 13 to 15 d
[19] = Preemergence, 31 g ai/ha, scale 0 to 100, 0 is no effect, 100 is complete control
[20] = Preemergence, 62 g ai/ha, scale 0 to 100, 0 is no effect, 100 is complete control
[21] = Preemergence, 125 g ai/ha, scale 0 to 100, 0 is no effect, 100 is complete control
[22] = Preemergence, 250 g ai/ha, scale 0 to 100, 0 no effect, 100 complete control
[23] = postemergence, 62 g ai/ha, scale 0 to 100, 0 no effect, 100 complete control

## Cc1nn(C)c(=O)c(-c2ccc(Br)c3ccccc23)c1O [Compound 75]
[1]; [16]
  Ryegrass, Italian plant response rating: 80
[1]; [17]
  Plant response rating, Ryegrass, Italian: 85
[1]; [18]
  Plant response rating, Ryegrass, Italian: 85
[1]; [19]
  Plant response rating, Ryegrass, Italian: 90
[1]; [20]
  Plant response rating, Ryegrass, Italian: 90
[1]; [21]
  Plant response rating, Ryegrass, Italian: 90
[1]; [22]
  Ryegrass, Italian plant response rating: 90
[1]; [23]
  Ryegrass, Italian plant response rating: 80
[2]; [16]
  Nutsedge, Yellow plant response rating: 25
[2]; [17]
  Plant response rating, Nutsedge, Yellow: 50
[2]; [18]
  Plant response rating, Nutsedge, Yellow: 70
[2]; [19]
  Plant response rating, Nutsedge, Yellow: 15
[2]; [20]
  Plant response rating, Nutsedge, Yellow: 40
[2]; [21]
  Plant response rating, Nutsedge, Yellow: 65
[2]; [22]
  Nutsedge, Yellow plant response rating: 75
[2]; [23]
  Nutsedge, Yellow plant response rating: 20
[3]; [16]
  Crabgrass, Large plant response rating: 5
[3]; [17]
  Plant response rating, Crabgrass, Large: 5
[3]; [18]
  Plant response rating, Crabgrass, Large: 20
[3]; [19]
  Plant response rating, Crabgrass, Large: 75
[3]; [20]
  Plant response rating, Crabgrass, Large: 10
[3]; [21]
  Plant response rating, Crabgrass, Large: 25
[3]; [22]
  Crabgrass, Large plant response rating: 50
[3]; [23]
  Crabgrass, Large plant response rating: 10
[4]; [16]
  Velvetleaf plant response rating: 70
[4]; [17]
  Plant response rating, Velvetleaf: 85
[4]; [18]
  Plant response rating, Velvetleaf: 85
[4]; [19]
  Plant response rating, Velvetleaf: 35
[4]; [20]
  Plant response rating, Velvetleaf: 85
[4]; [21]
  Plant response rating, Velvetleaf: 90
[4]; [22]
  Velvetleaf plant response rating: 98
[4]; [23]
  Velvetleaf plant response rating: 50
[5]; [16]
  Waterhemp plant response rating: 100
[5]; [17]
  Plant response rating, Waterhemp: 100
[5]; [18]
  Plant response rating, Waterhemp: 100
[5]; [19]
  Plant response rating, Waterhemp: 100
[5]; [20]
  Plant response rating, Waterhemp: 100
[5]; [21]
  Plant response rating, Waterhemp: 100
[5]; [22]
  Waterhemp plant response rating: 100
[5]; [23]
  Waterhemp plant response rating: 100
[6]; [16]
  Ragweed plant response rating: 95
[6]; [17]
  Plant response rating, Ragweed: 100
[6]; [18]
  Plant response rating, Ragweed: 100
[6]; [19]
  Plant response rating, Ragweed: 80
[6]; [20]
  Plant response rating, Ragweed: 85
[6]; [21]
  Plant response rating, Ragweed: 90
[6]; [22]
  Ragweed plant response rating: 100
[6]; [23]
  Ragweed plant response rating: 85
[7]; [16]
  Soybean plant response rating: 20
[7]; [17]
  Plant response rating, Soybean: 35
[7]; [18]
  Plant response rating, Soybean: 10
[7]; [19]
  Plant response rating, Soybean: 0
[7]; [20]
  Plant response rating, Soybean: 20
[7]; [21]
  Plant response rating, Soybean: 45
[7]; [22]
  Soybean plant response rating: 55
[7]; [23]
  Soybean plant response rating: 35
[8]; [16]
  Corn plant response rating: 5
[8]; [17]
  Plant response rating, Corn: 10
[8]; [18]
  Plant response rating, Corn: 10
[8]; [19]
  Plant response rating, Corn: 0
[8]; [20]
  Plant response rating, Corn: 5
[8]; [21]
  Plant response rating, Corn: 0
[8]; [22]
  Corn plant response rating: 10
[8]; [23]
  Corn plant response rating: 5
[9]; [16]
  Blackgrass plant response rating: 5
[9]; [17]
  Plant response rating, Blackgrass: 20
[9]; [18]
  Plant response rating, Blackgrass: 35
[9]; [19]
  Plant response rating, Blackgrass: 20
[9]; [20]
  Plant response rating, Blackgrass: 30
[9]; [21]
  Plant response rating, Blackgrass: 30
[9]; [22]
  Blackgrass plant response rating: 30
[9]; [23]
  Blackgrass plant response rating: 5
[10]; [16]
  Morningglory plant response rating: 98
[10]; [17]
  Plant response rating, Morningglory: 100
[10]; [18]
  Plant response rating, Morningglory: 75
[10]; [19]
  Plant response rating, Morningglory: 70
[10]; [20]
  Plant response rating, Morningglory: 85
[10]; [21]
  Plant response rating, Morningglory: 95
[10]; [22]
  Morningglory plant response rating: 100
[10]; [23]
  Morningglory plant response rating: 100
[11]; [16]
  Galium plant response rating: 90
[11]; [17]
  Plant response rating, Galium: 90
[11]; [18]
  Plant response rating, Galium: 90
[11]; [19]
  Plant response rating, Galium: 90
[11]; [20]
  Plant response rating, Galium: 90
[11]; [21]
  Plant response rating, Galium: 90
[11]; [22]
  Galium plant response rating: 98
[11]; [23]
  Galium plant response rating: 90
[12]; [16]
  Lambsquarters plant response rating: 100
[12]; [17]
  Plant response rating, Lambsquarters: 100
[12]; [18]
  Plant response rating, Lambsquarters: 100
[12]; [19]
  Plant response rating, Lambsquarters: 65
[12]; [20]
  Plant response rating, Lambsquarters: 100
[12]; [21]
  Plant response rating, Lambsquarters: 85
[12]; [22]
  Lambsquarters plant response rating: 90
[12]; [23]
  Lambsquarters plant response rating: 100
[13]; [16]
  Foxtail, Giant plant response rating: 5
[13]; [17]
  Plant response rating, Foxtail, Giant: 5
[13]; [18]
  Plant response rating, Foxtail, Giant: 10
[13]; [19]
  Plant response rating, Foxtail, Giant: 5
[13]; [20]
  Plant response rating, Foxtail, Giant: 45
[13]; [21]
  Plant response rating, Foxtail, Giant: 70
[13]; [22]
  Foxtail, Giant plant response rating: 75
[13]; [23]
  Foxtail, Giant plant response rating: 5
[14]; [16]
  Barnyardgrass plant response rating: 25
[14]; [17]
  Plant response rating, Barnyardgrass: 15
[14]; [18]
  Plant response rating, Barnyardgrass: 20
[14]; [19]
  Plant response rating, Barnyardgrass: 5
[14]; [20]
  Plant response rating, Barnyardgrass: 25
[14]; [21]
  Plant response rating, Barnyardgrass: 50
[14]; [22]
  Barnyardgrass plant response rating: 85
[14]; [23]
  Barnyardgrass plant response rating: 25
[15]; [16]
  Oilseed Rape plant response rating: 70
[15]; [17]
  Plant response rating, Oilseed Rape: 90
[15]; [18]
  Plant response rating, Oilseed Rape: 80
[15]; [19]
  Plant response rating, Oilseed Rape: 30
[15]; [20]
  Plant response rating, Oilseed Rape: 70
[15]; [21]
  Plant response rating, Oilseed Rape: 90
[15]; [22]
  Oilseed Rape plant response rating: 98
[15]; [23]
  Oilseed Rape plant response rating: 70

## CCC(=O)Oc1c(C)nn(C)c(=O)c1-c1c(C)ccc2ccccc12 [Compound 78]
[1]; [16]
  Ryegrass, Italian plant response rating: 55
[1]; [17]
  Plant response rating, Ryegrass, Italian: 85
[1]; [18]
  Plant response rating, Ryegrass, Italian: 90
[1]; [23]
  Ryegrass, Italian plant response rating: 65
[2]; [16]
  Nutsedge, Yellow plant response rating: 0
[2]; [17]
  Plant response rating, Nutsedge, Yellow: 35
[2]; [18]
  Plant response rating, Nutsedge, Yellow: 60
[2]; [23]
  Nutsedge, Yellow plant response rating: 25
[3]; [16]
  Crabgrass, Large plant response rating: 5
[3]; [17]
  Plant response rating, Crabgrass, Large: 10
[3]; [18]
  Plant response rating, Crabgrass, Large: 10
[3]; [23]
  Crabgrass, Large plant response rating: 5
[4]; [16]
  Velvetleaf plant response rating: 0
[4]; [17]
  Plant response rating, Velvetleaf: 35
[4]; [18]
  Plant response rating, Velvetleaf: 60
[4]; [23]
  Velvetleaf plant response rating: 10
[5]; [16]
  Waterhemp plant response rating: 75
[5]; [17]
  Plant response rating, Waterhemp: 80
[5]; [18]
  Plant response rating, Waterhemp: 90
[5]; [23]
  Waterhemp plant response rating: 90
[6]; [16]
  Ragweed plant response rating: 10
[6]; [17]
  Plant response rating, Ragweed: 60
[6]; [18]
  Plant response rating, Ragweed: 75
[6]; [23]
  Ragweed plant response rating: 20
[7]; [16]
  Soybean plant response rating: 0
[7]; [17]
  Plant response rating, Soybean: 5
[7]; [18]
  Plant response rating, Soybean: 20
[7]; [23]
  Soybean plant response rating: 0
[8]; [16]
  Corn plant response rating: 0
[8]; [17]
  Plant response rating, Corn: 10
[8]; [18]
  Plant response rating, Corn: 0
[8]; [23]
  Corn plant response rating: 0
[9]; [16]
  Blackgrass plant response rating: 0
[9]; [17]
  Plant response rating, Blackgrass: 5
[9]; [18]
  Plant response rating, Blackgrass: 30
[9]; [23]
  Blackgrass plant response rating: 5
[10]; [16]
  Morningglory plant response rating: 20
[10]; [17]
  Plant response rating, Morningglory: 65
[10]; [18]
  Plant response rating, Morningglory: 65
[10]; [23]
  Morningglory plant response rating: 40
[11]; [16]
  Galium plant response rating: 70
[11]; [17]
  Plant response rating, Galium: 80
[11]; [18]
  Plant response rating, Galium: 95
[11]; [23]
  Galium plant response rating: 80
[12]; [16]
  Lambsquarters plant response rating: 40
[12]; [17]
  Plant response rating, Lambsquarters: 75
[12]; [18]
  Plant response rating, Lambsquarters: 100
[12]; [23]
  Lambsquarters plant response rating: 70
[13]; [16]
  Foxtail, Giant plant response rating: 15
[13]; [17]
  Plant response rating, Foxtail, Giant: 20
[13]; [18]
  Plant response rating, Foxtail, Giant: 25
[13]; [23]
  Foxtail, Giant plant response rating: 5
[14]; [16]
  Barnyardgrass plant response rating: 15
[14]; [17]
  Plant response rating, Barnyardgrass: 30
[14]; [18]
  Plant response rating, Barnyardgrass: 25
[14]; [23]
  Barnyardgrass plant response rating: 25
[15]; [16]
  Oilseed Rape plant response rating: 0
[15]; [17]
  Plant response rating, Oilseed Rape: 0
[15]; [18]
  Plant response rating, Oilseed Rape: 5
[15]; [23]
  Oilseed Rape plant response rating: 0

Reference: patent US10597388B2, “Pyridazinone herbicides” (FMC CORPORATION, priority 2014, dated 2020)
